# From patent EP2891491A1, “Use of (r)-phenylpiracetam for the treatment of sleep disorders” (Merz Pharma GmbH & Co. KGaA, priority 2014, dated 2015)
# Legend:
# [1] = model for depression; cited from earlier work
# [2] = test system: rats; experiment: motivation tests: progressive ratio task, cost-benefit choice test, consumption test; type: in vivo
# Protocol: EXAMPLE 6: Effect of (R)-phenylpiracetam in motivation tests - Figs. 5, 6, 7, 8
# Methylphenidate purchased from Sigma (Taufkirchen, Germany) was dissolved in distilled water fresh for each test day. D-Amphetamine purchased from Sigma (Taufkirchen, Germany) was dissolved in 0.9% sterile NaCl solution fresh for each test day. (R)-Phenylpiracetam was dissolved in distilled water fresh for each test day.
# One hundred and three male Sprague-Dawley rats (Janvier, Le Genest-St-Isle, France) weighing 225-250 g on arrival were used.
# The animals were kept under standard laboratory conditions in groups of up to 4 per care with ad libitum access to water. Standard diet for rodents (Altromin) was available to the animals at 15 g per animal/day
# For each test described below, two independent experiments were performed using an identical protocol. After continuous reinforcement training (CRF) training (see below) all animals were assigned to treatment groups, such that performance across all the groups was similar. The treatment groups were evenly distributed throughout the caging system.
# In experiment 1 and 2 the following protocols were used:
# Overview: Three tests were performed in a consecutive manner on subsequent days. On day 1-2, animals were habituated individually to Skinner boxes in two sessions, one per day, for 30 min. Animals received "free" food pellets at a random time (one pellet per minute on average). On days 3-8 animals were trained in Skinner boxes on a continuous reinforcement schedule (one pellet per lever press). On days 9-10 they were tested in the progressive ratio test (Test 1) off-drug, on days 11-12 on-drug. On day 13, a choice test (Test 2) was performed on-drug, on day 14, a consumption test (Test 3) was performed on-drug. Below, tests are described in detail.
# Behavioral testing was conducted in 12 operant test chambers (Med Associates, St. Albans, USA). Each chamber was equipped with a retractable lever, a food dispenser with receptacle, an overhead house light and two stimulus lights, one above the lever and the other above the food receptacle. An infrared photocell beam detected nose pokes into the food receptacle. The apparatus was controlled by a computer system (SmartControl®-Interface and MedPC-software, Med Associates, St. Albans, USA). The light above the food receptacle indicated the delivery of a food pellet in the receptacle. Rats were first habituated to the operant boxes for two sessions (30 min each) on two consecutive days. Thereafter, animals were trained for six sessions on the CRF schedule for 30 min. Followed by 4 sessions (two session off-drug followed by two sessions on-drug) of an increasing fixed ratio (FR) schedule in steps of 5, with 3 repetitions of each step (i.e. 1-1-1; 5-5-5; 10-10-10; ...). When the required FR value of each trial was achieved the light above the food receptacle indicated the delivery of a single food pellet (45 mg, Bioserve, USA). The light remained on until the rat poked its nose in the receptacle. Lever presses while the light was on were counted as perseverative lever presses; they were counted but had no programmed consequences. […] For each session, the value of the last completed ratio (breaking point) was recorded as well as the amount of received rewards, the perseverative lever presses, the duration of the session and the latency to respond. Animals of all treatment groups received respective vehicle/drug infusions 30 min pre-test on the final two sessions involving testing under a PR schedule.
# In this task the rats had the choice between working for their preferred food (Bioserve pellets) by pressing the lever on a PR schedule as described above or obtaining lab chow being freely available in a dish (about 15 g) within the operant chamber. The food receptacle and the lever were positioned on the same wall of the operant chamber, the dish containing the lab chow was situated in a corner on the opposite side of the operant chamber. […]
# [3] = test system: subjects with Parkinson's Disease; experiment: clinical study of EDS in Parkinson patients, Epworth Sleepiness Scale; type: in vivo, humans; conditions: 50 mg bid for 4 weeks, oral, adjunct to L-Dopa
# Protocol: In a prospective, randomized, double-blind, placebo-controlled, parallel group, multicenter study the tolerability, safety and efficacy of (R)-Phenylpiracetam after oral administration adjunct to L-Dopa treatment is confirmed. After a screening period of one week 36 subjects with Parkinson's Disease receive 50 mg (R)-Phenylpiracetam or placebo bid at 8.00 am and 3.00 pm for 4 weeks. A safety follow-up is performed 1 week after the double-blind treatment period. Visits take place 1 week before randomization (V1, day -7), at baseline (V2, day 1), at Week 2 (V3) and Week 4 (V4). A safety follow-up (V5) is performed 1 week after the last intake of study medication. An assessment of excessive daily sleepiness using the Epworth Sleepiness Scale [ESS] takes place at screening, baseline, week 2 and week 4.
# The questionnaire asks the subject to rate his or her probability of falling asleep on a scale of increasing probability from 0 to 3 for 8 different situations that most people engage in during their daily lives, though not necessarily every day (Johns et al. J Neurol Neurosurg Psychiatry. 2005;76(12):1636). The scores for the 8 questions are added together to obtain a single number. […]
# The absolute change of ESS from day 1 to day 14 and 28 is analyzed.
# [4] = in vivo; cited from earlier work
# [5] = test system: rats; experiment: locomotor activity (horizontal activity) in rats; type: in vivo; conditions: i.p. 15 min before test, starting at the dose of 100 mg/kg
# Protocol: EXAMPLE 4: Effect of (R)-phenylpiracetam on locomotor activity (horizontal activity) in rats - Fig. 3
# Experimentally naive adult male Sprague-Dawley rats (230-300 g) are kept four per cage, in a room with controlled temperature (21 ± 1°C) and humidity. Food and water are available ad libitum and the animals are kept under an alternating 12 h / 12 h day-night cycle (lights on at 07.00) for at least 6 days before the experiments are started. Each animal is used only once. Experimental group consist of 8 animals per group.
# Horizontal locomotor activity was measured in 8 perspex boxes (ENV-515-16, 43.2 cm x 43.2 cm x 30 cm), Med-Associates Inc.) equipped with 4 arrays of 16 infrared photobeams placed 3 cm above the floor. Distance travelled (DT) was used in further analysis as a measure of locomotion.
# (R)-Phenylpiracetam was administered i. p. in a volume of 2 ml/kg in saline
# Data with locomotor activity were analyzed by means of Kruskal-Wallis ANOVA on ranks followed, if significant, by rank sum test.
compound,measurement,setting,value
NC(=O)CN1C[C@@H](c2ccccc2)CC1=O [(R)-phenylpiracetam],potency in the forced swim test,[1],only slightly more potent than (S)-phenylpiracetam
same,consumption of freely available normal food,[2]; cost-benefit choice test,does not increase
same,"motivation, i.e. the work load animals are willing to perform to obtain more rewarding food",[2]; drug 30 min pre-test,increases motivation
same,effect on motivation compared with methylphenidate and amphetamine,[2]; progressive ratio and cost benefit tests,much stronger than that of methylphenidate and amphetamine
same,improvement of ESS (absolute change from day 1 to day 14 and 28),[3],at least 3 points
same,memory function in the passive avoidance test,[4],enhanced memory function significantly better compared to (S)-phenylpiracetam
same,locomotor activity (horizontal activity),[5],increases locomotor activity
